29 compounds from publication PMC2248166, “Quantitative peptide binding motifs for 19 human and mouse MHC class I molecules derived using positional scanning combinatorial peptide libraries” (Immunome Research, 2008) can be followed below.

Each structure is given as a SMILES string. Where a SMILES comes first, the peptide text is derived from it.

The term IC50 denotes the midpoint of a concentration-inhibition curve.

For this assay, the target named is HLA A*3001 (Homo sapiens, UniProt P04439, D140H/D185E/E176W/F33S/G80R/H175R/K168Q/R138E/R41S). Kind of assay: biochemical. Type of assay: binding.
Sequence of HLA A*3001 (P04439 25-365 limits assumed, stated change not applied): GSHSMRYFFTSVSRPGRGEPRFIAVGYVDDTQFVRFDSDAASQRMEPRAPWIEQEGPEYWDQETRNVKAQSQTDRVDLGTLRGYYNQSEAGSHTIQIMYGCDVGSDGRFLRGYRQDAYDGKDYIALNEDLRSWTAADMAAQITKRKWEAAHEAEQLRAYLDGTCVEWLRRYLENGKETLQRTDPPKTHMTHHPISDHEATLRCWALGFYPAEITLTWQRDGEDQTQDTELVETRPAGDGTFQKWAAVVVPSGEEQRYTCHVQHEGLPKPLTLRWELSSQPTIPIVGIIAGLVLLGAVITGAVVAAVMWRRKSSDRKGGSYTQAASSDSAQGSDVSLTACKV
Regarding `CSCC[C@H](NC(=O)[C@H](CO)NC(=O)[C@H](CCCNC(=N)N)NC(=O)[C@@H]1CCCN1C(=O)[C@H](Cc1ccccc1)NC(=O)[C@H](CCCCN)NC(=O)[C@H](CO)NC(=O)[C@@H](N)CCCCN)C(=O)N[C@@H](CC(C)C)C(=O)O` [3102.0022] (H-KSKFPRSML-OH), the IC50 is 31 nM.

With `CC(C)C[C@H](NC(=O)[C@H](CO)NC(=O)[C@H](CO)NC(=O)[C@H](CCC(=O)O)NC(=O)[C@H](CCCCN)NC(=O)[C@H](CCCCN)NC(=O)[C@H](Cc1ccccc1)NC(=O)[C@@H](N)CCCNC(=N)N)C(=O)N[C@@H](C)C(=O)O` [3102.0023] (H-RFKKESSLA-OH), the IC50 came to 0.31 nM.

As for `CSCC[C@H](N)C(=O)N[C@@H](CC(C)C)C(=O)N[C@@H](CCCNC(=N)N)C(=O)N[C@H](C(=O)N[C@H](C(=O)N[C@@H](Cc1ccc(O)cc1)C(=O)N[C@@H](CS)C(=O)N[C@@H](CC(N)=O)C(=O)N[C@@H](CCCCN)C(=O)O)C(C)C)[C@@H](C)O` [3102.0024] (H-MLRTVYCNK-OH), the IC50 is 0.26 nM.

`CC(C)[C@H](NC(=O)[C@H](CO)NC(=O)[C@H](CCCNC(=N)N)NC(=O)[C@H](CCCCN)NC(=O)[C@H](CO)NC(=O)[C@H](CC(N)=O)NC(=O)[C@H](CCCNC(=N)N)NC(=O)[C@H](CC(N)=O)NC(=O)[C@@H](N)CCCCN)C(=O)O` [3102.0025] (H-KNRNSKRSV-OH) came in with an IC50 of 33 nM.

Consider `CC[C@H](C)[C@H](NC(=O)[C@H](CC(N)=O)NC(=O)[C@@H]1CCCN1C(=O)[C@H](CCCNC(=N)N)NC(=O)[C@H](Cc1ccc(O)cc1)NC(=O)[C@@H](N)CC(C)C)C(=O)N1CCC[C@H]1C(=O)N[C@@H](CC(C)C)C(=O)N[C@@H](CCCCN)C(=O)O` [3102.0026] (H-LYRPNIPLK-OH), for which the IC50 is 3.5 nM.

`CC[C@H](C)[C@H](NC(=O)[C@H](Cc1ccccc1)NC(=O)[C@H](CCCCN)NC(=O)CNC(=O)[C@H](CCC(N)=O)NC(=O)[C@H](CCCNC(=N)N)NC(=O)[C@@H](NC(=O)[C@@H](N)CCCNC(=N)N)[C@@H](C)CC)C(=O)N[C@@H](CCCCN)C(=O)O` [3102.0028] (H-RIRQGKFIK-OH) gave an IC50 of 4.8 nM.

Take `CC[C@H](C)[C@H](N)C(=O)N[C@H](C(=O)N[C@@H](CCCCN)C(=O)N[C@@H](CO)C(=O)N[C@@H](CO)C(=O)N[C@@H](Cc1ccc(O)cc1)C(=O)N[C@H](C(=O)N[C@@H](Cc1ccccc1)C(=O)N[C@@H](CCCCN)C(=O)O)C(C)C)[C@@H](C)CC` [3102.0029] (H-IIKSSYVFK-OH): the IC50 was determined as 11 nM.

Compound `CC(C)C[C@H](NC(=O)[C@H](Cc1ccccc1)NC(=O)[C@H](CC(N)=O)NC(=O)[C@H](Cc1ccccc1)NC(=O)[C@@H]1CCCN1C(=O)[C@H](C)NC(=O)[C@H](CC(C)C)NC(=O)[C@@H](NC(=O)[C@@H](N)CCCCN)[C@@H](C)O)C(=O)O` [3102.0030] (H-KTLAPFNFL-OH) registered an IC50 of 15 nM.

In turn, `N=C(N)NCCC[C@H](NC(=O)CNC(=O)[C@@H](N)CCCCN)C(=O)N[C@@H](CCCNC(=N)N)C(=O)N[C@@H](CCC(N)=O)C(=O)N[C@@H](Cc1ccc(O)cc1)C(=O)N[C@@H](Cc1ccccc1)C(=O)N[C@@H](Cc1ccc(O)cc1)C(=O)NCC(=O)O` [3102.0035] (H-KGRRQYFYG-OH) returned an IC50 of 2.9 nM.

As for `CC[C@H](C)[C@H](NC(=O)[C@H](CCCCN)NC(=O)[C@@H](NC(=O)[C@@H](N)CCCNC(=N)N)[C@@H](C)O)C(=O)N1CCC[C@H]1C(=O)N[C@@H](CC(C)C)C(=O)N[C@@H](CO)C(=O)N[C@@H](CCCCN)C(=O)N[C@H](C(=O)O)C(C)C` [3102.0039] (H-RTKIPLSKV-OH), the IC50 came out at 4.1 nM.

Compound `CC[C@H](C)[C@H](NC(=O)CNC(=O)[C@H](CC(C)C)NC(=O)[C@@H]1CCCN1C(=O)CNC(=O)[C@H](CCCNC(=N)N)NC(=O)[C@@H](NC(=O)[C@@H](N)CCCNC(=N)N)[C@@H](C)O)C(=O)N[C@@H](CC(C)C)C(=O)O` [3102.0040] (H-RTRGPLGIL-OH) yielded an IC50 of 0.086 nM.

As for `CC[C@H](C)[C@H](NC(=O)[C@H](CCCCN)NC(=O)[C@@H](NC(=O)[C@H](CO)NC(=O)[C@H](CCC(N)=O)NC(=O)[C@H](CC(=O)O)NC(=O)[C@H](CCCNC(=N)N)NC(=O)[C@H](CC(C)C)NC(=O)[C@@H](N)Cc1c[nH]cn1)[C@@H](C)CC)C(=O)O` [3102.0041] (H-HLRDQSIKI-OH), the IC50 stood at 15 nM.

Turning to `C[C@@H](O)[C@H](NC(=O)[C@H](CO)NC(=O)CNC(=O)[C@H](CCCNC(=N)N)NC(=O)[C@H](CC(N)=O)NC(=O)CN)C(=O)N[C@@H](CO)C(=O)N[C@@H](Cc1ccccc1)C(=O)N[C@@H](CCCCN)C(=O)O` [3102.0043] (H-GNRGSTSFK-OH), the IC50 turned out to be 2 nM.

Compound `CC[C@H](C)[C@H](NC(=O)[C@H](C)NC(=O)[C@H](Cc1c[nH]cn1)NC(=O)[C@H](CO)NC(=O)[C@@H](N)CCCCN)C(=O)N[C@@H](Cc1ccc(O)cc1)C(=O)N[C@@H](Cc1c[nH]c2ccccc12)C(=O)N[C@@H](CC(=O)O)C(=O)N[C@@H](CCCCN)C(=O)O` [3102.0046] (H-KSHAIYWDK-OH) came in with an IC50 of 11 nM.

On to `C[C@@H](O)[C@H](NC(=O)[C@@H](N)CCCNC(=N)N)C(=O)N[C@@H](Cc1c[nH]cn1)C(=O)N[C@@H](Cc1ccccc1)C(=O)N[C@@H](CO)C(=O)N[C@@H](CCC(N)=O)C(=O)N1CCC[C@H]1C(=O)N[C@@H](CO)C(=O)NCC(=O)O` [3102.0048] (H-RTHFSQPSG-OH), for which the IC50 came out at 15 nM.

Take `CC(C)C[C@H](NC(=O)[C@H](Cc1ccc(O)cc1)NC(=O)[C@H](CC(C)C)NC(=O)[C@H](Cc1ccccc1)NC(=O)[C@H](C)NC(=O)[C@H](Cc1ccccc1)NC(=O)[C@H](CCCNC(=N)N)NC(=O)[C@H](Cc1ccc(O)cc1)NC(=O)[C@@H](N)CCCNC(=N)N)C(=O)O` [3102.0049] (H-RYRFAFLYL-OH): 0.17 nM corresponded to half-maximal inhibition (IC50).

In turn, `CC[C@H](C)[C@H](NC(=O)[C@H](Cc1c[nH]cn1)NC(=O)[C@H](Cc1ccccc1)NC(=O)[C@H](CO)NC(=O)[C@@H](NC(=O)[C@@H](N)CCCCN)[C@@H](C)O)C(=O)N[C@H](C(=O)N[C@@H](Cc1ccccc1)C(=O)N[C@@H](CC(C)C)C(=O)O)[C@@H](C)CC` [3102.0050] (H-KTSFHIIFL-OH) showed an IC50 of 25 nM.

In turn, `CC[C@H](C)[C@H](NC(=O)[C@H](CC(N)=O)NC(=O)[C@H](CC(=O)O)NC(=O)[C@H](CO)NC(=O)[C@H](CCCNC(=N)N)NC(=O)[C@@H](NC(=O)[C@@H](N)CCCCN)[C@@H](C)CC)C(=O)N[C@@H](CCCCN)C(=O)N[C@@H](CCCCN)C(=O)O` [3102.0051] (H-KIRSDNIKK-OH) gave an IC50 of 12 nM.

On to `CC[C@H](C)[C@H](NC(=O)[C@H](Cc1ccc(O)cc1)NC(=O)[C@@H](NC(=O)[C@H](CCCCN)NC(=O)[C@H](CCCCN)NC(=O)[C@H](Cc1ccccc1)NC(=O)[C@@H](N)CCCNC(=N)N)C(C)C)C(=O)N[C@@H](CC(C)C)C(=O)N[C@H](C(=O)O)C(C)C` [3102.0055] (H-RFKKVYILV-OH), for which the IC50 stood at 13 nM.

As to `CC[C@H](C)[C@H](NC(=O)[C@H](CCCNC(=N)N)NC(=O)[C@H](CC(N)=O)NC(=O)[C@@H](NC(=O)[C@H](CCC(=O)O)NC(=O)[C@H](CCCCN)NC(=O)[C@@H](NC(=O)[C@@H](N)CCCCN)[C@@H](C)O)[C@@H](C)O)C(=O)N[C@@H](Cc1ccc(O)cc1)C(=O)O` [3102.0056] (H-KTKETNRIY-OH), inhibition was half-maximal at 11 nM (IC50).

Regarding `CC[C@H](C)[C@H](NC(=O)[C@H](CCCNC(=N)N)NC(=O)CNC(=O)[C@@H](N)CCCCN)C(=O)N[C@@H](CO)C(=O)N[C@@H](Cc1ccc(O)cc1)C(=O)N[C@@H](Cc1ccc(O)cc1)C(=O)N[C@@H](CCC(=O)O)C(=O)N[C@@H](CCSC)C(=O)O` [3102.0058] (H-KGRISYYEM-OH), the IC50 amounted to 14 nM.

Compound `CSCC[C@H](NC(=O)[C@H](CC(N)=O)NC(=O)[C@H](CCCNC(=N)N)NC(=O)[C@@H](NC(=O)[C@@H](N)CCCNC(=N)N)[C@@H](C)O)C(=O)N[C@@H](Cc1ccccc1)C(=O)N[C@@H](CCCNC(=N)N)C(=O)N[C@@H](CCCCN)C(=O)N[C@@H](CCCCN)C(=O)O` [3102.0060] (H-RTRNMFRKK-OH) returned an IC50 of 0.089 nM.

The compound `CC[C@H](C)[C@H](NC(=O)[C@H](C)NC(=O)[C@H](CO)NC(=O)[C@@H](NC(=O)[C@H](CO)NC(=O)[C@@H](NC(=O)[C@@H](N)CCCNC(=N)N)C(C)C)C(C)C)C(=O)N[C@@H](CC(C)C)C(=O)N[C@@H](CC(C)C)C(=O)O` [3102.0061] (H-RVSVSAILL-OH) displayed an IC50 of 15 nM.

As to `CSCC[C@H](NC(=O)[C@H](CC(C)C)NC(=O)[C@@H](NC(=O)[C@@H](N)Cc1c[nH]cn1)C(C)C)C(=O)N[C@@H](Cc1c[nH]cn1)C(=O)N[C@@H](CO)C(=O)N1CCC[C@H]1C(=O)N[C@@H](CC(C)C)C(=O)N[C@H](C(=O)O)C(C)C` [3102.0062] (H-HVLMHSPLV-OH), inhibition was half-maximal at 30 nM (IC50).

As for `CC[C@H](C)[C@H](N)C(=O)N[C@@H](CO)C(=O)N[C@@H](CCCNC(=N)N)C(=O)N[C@@H](CO)C(=O)N[C@@H](CCCNC(=N)N)C(=O)N[C@@H](CCCNC(=N)N)C(=O)N[C@@H](CC(C)C)C(=O)N[C@@H](Cc1ccccc1)C(=O)N[C@@H](C)C(=O)O` [3102.0065] (H-ISRSRRLFA-OH), the IC50 came out at 2.2 nM.

Consider `CC[C@H](C)[C@H](NC(=O)[C@@H](NC(=O)[C@@H](NC(=O)[C@H](CC(=O)O)NC(=O)[C@H](CCCCN)NC(=O)[C@@H](NC(=O)[C@H](C)N)C(C)C)C(C)C)[C@@H](C)O)C(=O)N[C@H](C(=O)N[C@@H](CCCCN)C(=O)O)[C@@H](C)O` [3102.0067] (H-AVKDVTITK-OH), for which the IC50 stood at 2.2 nM.

With `CC(C)[C@H](NC(=O)[C@@H](N)Cc1c[nH]cn1)C(=O)N[C@@H](Cc1ccc(O)cc1)C(=O)N[C@@H](CC(=O)O)C(=O)N[C@@H](Cc1ccccc1)C(=O)N[C@@H](CCC(=O)O)C(=O)N1CCC[C@H]1C(=O)N[C@@H](Cc1ccc(O)cc1)C(=O)N[C@@H](Cc1ccc(O)cc1)C(=O)O` [3102.0068] (H-HVYDFEPYY-OH), it took 27 nM to reach half-maximal inhibition (IC50).

In turn, `CC[C@H](C)[C@H](NC(=O)[C@H](CCCNC(=N)N)NC(=O)[C@H](CCC(N)=O)NC(=O)[C@@H](N)CCSC)C(=O)N[C@H](C(=O)N[C@@H](CO)C(=O)N[C@@H](CC(C)C)C(=O)N[C@@H](CO)C(=O)N[C@H](C(=O)O)C(C)C)[C@@H](C)CC` [3102.0069] (H-MQRIISLSV-OH) had an IC50 of 8.8 nM.

Take `CC(C)[C@H](NC(=O)[C@H](CO)NC(=O)[C@@H]1CCCN1C(=O)[C@H](CO)NC(=O)[C@H](C)NC(=O)[C@H](Cc1ccc(O)cc1)NC(=O)[C@H](Cc1ccccc1)NC(=O)CNC(=O)[C@@H](N)CCCCN)C(=O)O` [3102.0070] (H-KGFYASPSV-OH): 2.7 nM corresponded to half-maximal inhibition (IC50).
